How the values were obtained:
[1] = target: T1, human m3 muscarinic receptor (Homo sapiens, UniProt P20309); assay: Affinity for human muscarinic receptors ([3H]-NMS binding, CHO cell membranes); conditions: qualitative statement
T1 construct: expressed in transfected cells; host or cells: CHO (Chinese Hamster Ovarian) cells, crude membrane fraction
Method: Chinese Hamster Ovarian cells (CHO) expressing the human recombinant m1, m2, m3, m4 and m5 receptors were cultured in Ham's F12 media supplemented with 100 IU/ml of penicillin, 100 μg/ml of streptomycin, 400 μg/ml of geneticin and 5% of fetal bovine serum. Cell cultures were maintained in a humidified incubator at 37° C. and 5% CO2.
Confluent CHO cells expressing human m1, m2, m3, m4 and m5 muscarinic receptors were harvested and resuspended in phosphate buffered saline without calcium and magnesium. The cell suspension was centrifuged at 1500×g for 3 min (4° C.). The cell pellet was homogenized in a 15 mM Tris-HCl (pH 7.5) buffer containing 2 mM MgCl2, 0.3 mM EDTA and 1 mM EGTA. The crude membrane fraction was collected by two consecutive centrifugation steps at 40,000×g for 25 min (4° C.). The final pellet was resuspended, at a protein concentration ranging from 2 to 6 mg/ml, in a 7.5 mM Tris-HCl (pH 7.5) buffer containing 12.5 mM MgCl2, 0.3 mM EDTA, 1 mM EGTA and 250 mM sucrose and stored in liquid nitrogen.
Binding assays were performed according to procedure described in: Buckley N. J., Bonner T. I., Buckley C. M., Brann M. R., Mol. Pharmacol. (1989), 35, 469-476, but with slight modifications.
Briefly, 25 to 50 μg of membrane proteins were incubated at room temperature in 1 ml of a 50 mM Tris-HCl (pH 7.4) buffer containing 2 mM of MgCl2, 0.1 nM of [^3H]-NMS (N-methylscopolamine, 85 Ci/mmol, from Apbiotech, UK) and increasing concentrations of test compound dissolved in DMSO (1% final concentration). Non specific binding was measured in the presence of 1 μM atropine. After 60 (m2) or 120 (m3) min. incubation, assays were stopped by rapid vacuum filtration of the samples through glass fiber filters (Filtermat A, Wallac, Belgium) presoaked in 0.3% polyethyleneimine for at least 2 h. Samples were further rinsed with 8 ml of ice-cold 50 mM Tris-HCl (pH 7.4) buffer. Radioactivity trapped onto the filter was counted in a Betaplate counter (Wallac). Competition binding curves were analyzed by non-linear regression with XLfit software (UDBS, UK).

PDE IV = PDE IV enzymatic activity (SPA phosphodiesterase assay, cytosolic fraction from U937 cells); type: biochemical; conditions: qualitative statement
Method: Cytosolic fraction from U937 cells pre-stimulated for 4 h at 37° C. with a mixture of rolipram 30 μM and salbutamol 1 μM (Torphy T. J., Zhou H. L., Cieslinski L. B., J. Pharmacol. Exp. Ther. (1992), 263 (3), 1195-1205).
Assays were performed in 100 μL of 50 mM Tris HCl buffer (pH 7.4) containing 5 mM MgCl2, 2 mM EGTA, 20 nM of [^3H]-cAMP (40-60 Ci/mmol), the cytosolic fraction of 50,000 U937 cells and the appropriate concentration of test compound (usually 10 μM) dissolved in DMSO (final assay concentration not exceeding 1%). After 30 min incubation at room temperature, 0.5 mg of SPA yttrium silicate beads are added to each sample. Radioactivity bound to the beads (5′-AMP) is determined by liquid scintillation. Non PDE IV activity and/or non specific binding of the labeled substrate to the SPA beads is defined as the residual radioactivity remaining in the presence of rolipram 32 μM (non PDE IV activity represents about 40% of total activity). PDE IV activity is determined by subtracting the non PDE TV activity from the total activity.

T1 sequence (P20309 whole entry): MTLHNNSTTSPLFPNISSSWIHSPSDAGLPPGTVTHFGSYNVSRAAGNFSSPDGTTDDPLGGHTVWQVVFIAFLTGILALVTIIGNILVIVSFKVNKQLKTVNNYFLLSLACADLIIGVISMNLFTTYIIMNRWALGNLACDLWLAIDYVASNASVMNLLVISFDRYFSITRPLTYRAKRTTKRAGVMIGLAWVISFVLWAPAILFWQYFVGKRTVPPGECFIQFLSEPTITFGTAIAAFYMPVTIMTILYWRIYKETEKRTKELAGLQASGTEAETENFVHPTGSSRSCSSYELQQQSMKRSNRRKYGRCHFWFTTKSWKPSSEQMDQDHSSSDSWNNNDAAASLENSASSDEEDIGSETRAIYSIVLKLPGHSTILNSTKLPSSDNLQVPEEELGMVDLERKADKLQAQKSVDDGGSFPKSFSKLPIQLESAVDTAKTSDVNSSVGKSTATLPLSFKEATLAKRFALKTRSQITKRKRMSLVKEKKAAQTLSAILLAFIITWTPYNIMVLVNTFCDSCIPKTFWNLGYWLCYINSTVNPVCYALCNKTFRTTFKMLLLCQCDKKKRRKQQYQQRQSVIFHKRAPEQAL

For `Cc1c(NC2CCC(C)CC2)nc(C2CC2)nc1NC1CC1` (stereo not shown) [Compound 145, N^4,2-dicyclopropyl-5-methyl-N^6-(4-methylcyclohexyl)-4,6-pyrimidinediamine], the “Dual high affinities: m3 receptor part” value [1] was “high affinities” and the “Dual high affinities: PDE IV part” value (PDE IV) was “high affinities”.
With `CCc1c(NC2CC2)nc(C2CC2)nc1N1CCSCC1` [Compound 118, N,2-dicyclopropyl-5-ethyl-6-(4-thiomorpholinyl)-4-pyrimidinamine (1:1)] the “Dual high affinities: m3 receptor part” value [1] was “high affinities” and the “Dual high affinities: PDE IV part” value (PDE IV) was “high affinities”.
With `Cc1c(NC2CC2)nc(C2CC2)nc1N1CCCCC1C` (racemic) [Compound 177, N,2-dicyclopropyl-5-methyl-6-(2-methyl-1-piperidinyl)-4-pyrimidinamine] the “Dual high affinities: m3 receptor part” value [1] was “high affinities” and the “Dual high affinities: PDE IV part” value (PDE IV) was “high affinities”.
In the case of `Brc1c(NC2CC2)nc(C2CC2)nc1N1CCCCCC1` [Compound 61, 6-azepan-1-yl-5-bromo-N,2-dicyclopropyl-4-pyrimidinamine], the “Dual high affinities: m3 receptor part” value [1] is reported as “high affinities” and the “Dual high affinities: PDE IV part” value (PDE IV) is reported as “high affinities”.
With `Cc1c(NCc2c(F)cccc2F)nc(C2CC2)nc1NC1CC1` [Compound 132, N^4,2-dicyclopropyl-N^6-(2,6-difluorobenzyl)-5-methyl-4,6-pyrimidinediamine] the “Dual high affinities: m3 receptor part” value [1] was “high affinities” and the “Dual high affinities: PDE IV part” value (PDE IV) was “high affinities”.
For `Cc1c(NC2CC2)nc(C2CC2)nc1N1CC=CCC1` [Compound 112, N,2-dicyclopropyl-6-(3,6-dihydro-1(2H)-pyridinyl)-5-methyl-4-pyrimidinamine], the “Dual high affinities: m3 receptor part” value [1] was “high affinities” and the “Dual high affinities: PDE IV part” value (PDE IV) was “high affinities”.
In the case of `C1CCCN(c2nc(C3CC3)nc3c2CCCCN3)CC1` [Compound 156, 4-azepan-1-yl-2-cyclopropyl-6,7,8,9-tetrahydro-pyrimido[4,5-b]azepine], the “Dual high affinities: m3 receptor part” value [1] is reported as “high affinities” and the “Dual high affinities: PDE IV part” value (PDE IV) is reported as “high affinities”.
With `Cc1c(NC2CC2)nc(C2CC2C)nc1N1CCC(C)CC1` (racemic) [Compound 98, N-cyclopropyl-5-methyl-2-(2-methylcyclopropyl)-6-(4-methyl-1-piperidinyl)-4-pyrimidinamine] the “Dual high affinities: m3 receptor part” value [1] was “high affinities” and the “Dual high affinities: PDE IV part” value (PDE IV) was “high affinities”.
For `Clc1c(NC2CC2)nc(C2CC2)nc1N1CCCCCC1` [Compound 59, 6-(1-azepanyl)-5-chloro-N,2-dicyclopropyl-4-pyrimidinamine], the “Dual high affinities: m3 receptor part” value [1] was “high affinities” and the “Dual high affinities: PDE IV part” value (PDE IV) was “high affinities”.
In the case of `CCc1c(NC2CC2)nc(C2CC2)nc1N1CCC(C)CC1` [Compound 94, N,2-dicyclopropyl-5-ethyl-6-(4-methyl-1-piperidinyl)-4-pyrimidinamine], the “Dual high affinities: m3 receptor part” value [1] is reported as “high affinities” and the “Dual high affinities: PDE IV part” value (PDE IV) is reported as “high affinities”.
With `CC1CN(c2cc(N3CCCCCC3)nc(C3CC3)n2)C1` [Compound 191, 1-[2-cyclopropyl-6-(3-methylazetidin-1-yl)pyrimidin-4-yl]azepane] the “Dual high affinities: m3 receptor part” value [1] was “high affinities” and the “Dual high affinities: PDE IV part” value (PDE IV) was “high affinities”.
With `CC1CC1c1nc(NC2CCCCC2)cc(NC2CC2)n1` (single isomer, unassigned) [Compound 144, N^4-cyclohexyl-N^6-cyclopropyl-2-(2-methylcyclopropyl)-4,6-pyrimidinediamine] the “Dual high affinities: m3 receptor part” value [1] was “high affinities” and the “Dual high affinities: PDE IV part” value (PDE IV) was “high affinities”.
`Cc1c(NC2CC2)nc(C2CC2)nc1N1CCCCCCC1` [Compound 72, 6-(1-azocanyl)-N,2-dicyclopropyl-5-methyl-4-pyrimidinamine] was tested, and the “Dual high affinities: m3 receptor part” value [1] was “high affinities” and the “Dual high affinities: PDE IV part” value (PDE IV) was “high affinities”.
In the case of `Cc1c(NC2CC2)nc(C2CC2C)nc1N1CCCCCC1` (racemic) [Compound 65, 6-(1-azepanyl)-N-cyclopropyl-5-methyl-2-(2-methylcyclopropyl)-4-pyrimidinamine], the “Dual high affinities: m3 receptor part” value [1] is reported as “high affinities” and the “Dual high affinities: PDE IV part” value (PDE IV) is reported as “high affinities”.

From patent publication US7544675B2, “Chemical compounds with dual activity, processes for their preparation and pharmaceutical compositions” (UCB, S.A., priority 2002, dated 2009)
